Reference: ChEMBL document CHEMBL1201862, “PubChem BioAssay data set” (2004)
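In this assay, cells in 96-well plates receive the compound at five concentrations for 48 hours. Endpoints are linearly interpolated between the surrounding concentrations. GI50: concentration for 50% inhibition of growth.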 Activity calls are given as the source filed them. Rule as the data show it: active = GI50 up to about 1.1 µM and inactive = higher.

What was measured:
Assay in all cases: NCI tumour cell line growth inhibition, 48 h
HCT-15 = system: HCT-15
HCC 2998 = system: HCC 2998
MCF7 = system: MCF7
K562 = system: K562
SK-MEL-5 = system: SK-MEL-5
EKVX = system: EKVX
SNB-75 = system: SNB-75
PC-3 = system: PC-3
HT-29 = system: HT-29
HOP-92 = system: HOP-92
COLO 205 = system: COLO 205
HL-60 = system: HL-60
CCRF-CEM = system: CCRF-CEM
RXF 393 = system: RXF 393
786-0 = system: 786-0
NCI-H23 = system: NCI-H23
MOLT-4 = system: MOLT-4
BT-549 = system: BT-549
ACHN = system: ACHN

SMILES: O=C(NC1CCCCC1)c1cc2ccccc2cc1O
- GI50 (HCT-15): 26.4 µM
- GI50 (HCC 2998): 23.5 µM (inactive)
- GI50 (MCF7): 39.2 µM (inactive)
- GI50 (K562): 27.7 µM (inactive)
- GI50 (SK-MEL-5): 19.6 µM (inactive)
- GI50 (EKVX): 34.1 µM (inactive)
- GI50 (SNB-75): 45.5 µM (inactive)
- GI50 (PC-3): 28.8 µM (inactive)
- GI50 (HT-29): 20.4 µM (inactive)
- GI50 (HOP-92): 22.3 µM (inactive)
- GI50 (COLO 205): 53.1 µM (inactive)
- GI50 (HL-60): 22.6 µM (inactive)
- GI50 (CCRF-CEM): 38.9 µM (inactive)
- GI50 (RXF 393): 30.5 µM (inactive)
- GI50 (786-0): 26.3 µM (inactive)

SMILES: COC(C/C=C\C=C\CC/C=C/CC(C)/C=C/C(=C\C(=O)O)CC(=O)O)/C(C)=C\C=C(/C)C(=O)O (stereo not given)
- GI50 (NCI-H23): > 100 µM (inactive)
- GI50 (MOLT-4): > 100 µM (inactive)
- GI50 (BT-549): > 100 µM (inactive)
- GI50 (HCT-15): > 100 µM
- GI50 (HCC 2998): > 100 µM (inactive)
- GI50 (SK-MEL-5): 99.3 µM (inactive)
- GI50 (EKVX): 28.4 µM (inactive)
- GI50 (SNB-75): 58.3 µM (inactive)
- GI50 (PC-3): > 100 µM (inactive)
- GI50 (HT-29): > 100 µM (inactive)
- GI50 (HOP-92): > 100 µM (inactive)
- GI50 (COLO 205): > 100 µM (inactive)
- GI50 (CCRF-CEM): > 100 µM (inactive)

SMILES: O=C(CSC1=NCCN1)Nc1ccccc1
- GI50 (NCI-H23): 37.6 µM (inactive)
- GI50 (MOLT-4): 52.1 µM (inactive)
- GI50 (BT-549): 24.5 µM (inactive)
- GI50 (HCT-15): 29.2 µM
- GI50 (HCC 2998): 23.8 µM (inactive)
- GI50 (K562): 40.6 µM (inactive)
- GI50 (EKVX): 45.2 µM (inactive)
- GI50 (SNB-75): 21.5 µM (inactive)
- GI50 (PC-3): 19.9 µM (inactive)
- GI50 (HT-29): 31.4 µM (inactive)
- GI50 (HOP-92): 26.8 µM (inactive)
- GI50 (CCRF-CEM): 67.9 µM (inactive)
- GI50 (RXF 393): 13.8 µM (inactive)
- GI50 (ACHN): 22.4 µM (inactive)
- GI50 (786-0): 16.1 µM (inactive)

SMILES: O=C(O)c1nc2ccccc2nc1Nc1ccc(Cl)c(Cl)c1
- GI50 (NCI-H23): 17.7 µM (inactive)
- GI50 (MOLT-4): 15.8 µM (inactive)
- GI50 (BT-549): 16.1 µM (inactive)
- GI50 (HCT-15): 13.1 µM
- GI50 (HCC 2998): 18.2 µM (inactive)
- GI50 (K562): 21.7 µM (inactive)
- GI50 (SK-MEL-5): 15.7 µM (inactive)
- GI50 (EKVX): 33.1 µM (inactive)
- GI50 (SNB-75): 56.5 µM (inactive)
- GI50 (PC-3): 32.6 µM (inactive)
- GI50 (HOP-92): 16.1 µM (inactive)
- GI50 (COLO 205): 23.5 µM (inactive)
- GI50 (HL-60): 25.8 µM (inactive)
- GI50 (CCRF-CEM): 17.8 µM (inactive)
- GI50 (RXF 393): 25.4 µM (inactive)
- GI50 (ACHN): 29.5 µM (inactive)
- GI50 (786-0): 20.2 µM (inactive)

SMILES: CCOC(=O)c1csc(NC(=O)CN(C)C)n1
- GI50 (NCI-H23): > 100 µM (inactive)
- GI50 (MOLT-4): > 100 µM (inactive)
- GI50 (HCT-15): > 100 µM
- GI50 (HCC 2998): > 100 µM (inactive)
- GI50 (MCF7): > 100 µM (inactive)
- GI50 (K562): > 100 µM (inactive)
- GI50 (SK-MEL-5): > 100 µM (inactive)
- GI50 (EKVX): > 100 µM (inactive)
- GI50 (SNB-75): > 100 µM (inactive)
- GI50 (PC-3): > 100 µM (inactive)
- GI50 (HT-29): > 100 µM (inactive)
- GI50 (HOP-92): > 100 µM (inactive)
- GI50 (COLO 205): > 100 µM (inactive)
- GI50 (HL-60): > 100 µM (inactive)
- GI50 (CCRF-CEM): > 100 µM (inactive)
- GI50 (RXF 393): > 100 µM (inactive)
- GI50 (ACHN): > 100 µM (inactive)

SMILES: COC(=O)CCc1c(Cc2ccc[nH]2)[nH]c(C(=O)OCc2ccccc2)c1C
- GI50 (NCI-H23): 21.2 µM (inactive)
- GI50 (MOLT-4): 24.9 µM (inactive)
- GI50 (HCT-15): 16.1 µM
- GI50 (MCF7): 18.5 µM (inactive)
- GI50 (K562): 25.5 µM (inactive)
- GI50 (SK-MEL-5): 15.8 µM (inactive)
- GI50 (EKVX): 29.6 µM (inactive)
- GI50 (PC-3): 18.2 µM (inactive)
- GI50 (HT-29): 20.4 µM (inactive)
- GI50 (HOP-92): 23 µM (inactive)
- GI50 (COLO 205): 17.5 µM (inactive)
- GI50 (CCRF-CEM): 60.7 µM (inactive)
- GI50 (RXF 393): 20.8 µM (inactive)
- GI50 (ACHN): 23.1 µM (inactive)
- GI50 (786-0): 16.3 µM (inactive)

SMILES: CNC(C)(C)Cc1ccc(Cl)cc1
- GI50 (NCI-H23): > 100 µM (inactive)
- GI50 (MOLT-4): > 100 µM (inactive)
- GI50 (HCC 2998): > 100 µM (inactive)
- GI50 (K562): > 100 µM (inactive)
- GI50 (SK-MEL-5): > 100 µM (inactive)
- GI50 (EKVX): > 100 µM (inactive)
- GI50 (SNB-75): > 100 µM (inactive)
- GI50 (HT-29): > 100 µM (inactive)
- GI50 (COLO 205): > 100 µM (inactive)
- GI50 (CCRF-CEM): > 100 µM (inactive)
- GI50 (RXF 393): > 100 µM (inactive)
- GI50 (ACHN): > 100 µM (inactive)
- GI50 (786-0): > 100 µM (inactive)
